Measurements from patent publication US20210308089A1, “METHODS OF TREATING AND/OR PREVENTING VIRAL INFECTIONS AND/OR DISEASES CAUSED BY VIRUSES IN A SUBJECT IN NEED THEREOF” (priority 2020, published 2021).

Test system: patients of the REDUCE-IT and earlier EPA placebo-controlled trials
Test: Example 3: adverse events by risk ratio, icosapent ethyl vs placebo (candidate categories; infectious disease terms of interest)
Details: for ARR / NNT / Risk Ratio (95% CI) / AR: Cough (AE table) / ARR: Cough (AE table) / NNT: Cough (AE table) / Risk Ratio (95% CI): Cough (AE table): R-I
[1] = Cognitive Decline: Attention disorders and disturbances
[2] = Cognitive Decline: Cognitive and attention disorders and disturbances
[3] = Depression: Depressed mood disorders and disturbances
[4] = Depression: Depressive disorders
[5] = Depression: Depressive disorders - Depression
[6] = Depression: Depressive disorders - Major depression
[7] = Depression: Depressive disorders - Persistent depressive disorder
[8] = Depression: Depressive disorders- Agitated depression
[9] = Depression: Mood alterations - Depressed mood
[10] = Depression: Mood alterations - Depressive symptom
[11] = Depression: Mood alterations with depressive symptoms
[12] = Glomerulonephritis and Nephrotic Syndrome
[13] = Limb Fractures and Dislocations
[14] = NASH+Hepatic Steatosis for NFS >0.675
[15] = Psychosis: Psychotic disorder NEC
[16] = Squamous Cell Carcinoma of Head and Neck
[17] = Systemic Inflammatory Response Syndrome
[18] = first of three Cough lines of Table 46
[19] = second of three Cough lines of Table 46

CC/C=C\C/C=C\C/C=C\C/C=C\C/C=C\CCCC(=O)OCC [icosapent ethyl, eicosapentaenoic acid ethyl ester]
ARR (Bipolar Disease): −0.0%
NNT (Bipolar Disease): 2045
Risk Ratio (95% CI) (Bipolar Disease): 0.333 (0.035 to 3.204) 4
ARR (Blood CPK increased): −0.6%
NNT (Blood CPK increased): 164
Risk Ratio (95% CI) (Blood CPK increased): 0.684 (0.485 to 0.964) 2
ARR (Bone Fractures): 0.0%
NNT (Bone Fractures): −4088
Risk Ratio (95% CI) (Bone Fractures): 2.000 (0.181 to 22.053) −3
ARR (Breast Cancer): 0.0%
NNT (Breast Cancer): −2389144
Risk Ratio (95% CI) (Breast Cancer): 1.000 (0.351 to 2.849) −1
ARR (CKD): 0.1%
NNT (CKD): −680
Risk Ratio (95% CI) (CKD): 1.123 (0.766 to 1.646) −1
ARR (COPD): 0.2%
NNT (COPD): −453
Risk Ratio (95% CI) (COPD): 1.084 (0.837 to 1.405) −1
ARR (Chrohn's Disease): −0.0%
NNT (Chrohn's Disease): 2045
Risk Ratio (95% CI) (Chrohn's Disease): 0.333 (0.035 to 3.204) 4
ARR (Chronic Lymphycytic Leukaemia): 0.1%
NNT (Chronic Lymphycytic Leukaemia): −1363
Risk Ratio (95% CI) (Chronic Lymphycytic Leukaemia, case counts given): [3 drug vs 0 PBO]
ARR [1]: 0.0%
NNT [1]: −8362005
Risk Ratio (95% CI) [1]: 1.000 (0.141 to 7.097) −1
ARR [2]: 0.0%
NNT [2]: −8362005
Risk Ratio (95% CI) [2]: 1.000 (0.141 to 7.097) −1
Risk Ratio (95% CI) (Cognitive Decline: Cognitive disturbances): [No cases in study]
ARR (Colon Cancer): 0.1%
NNT (Colon Cancer): −1022
Risk Ratio (95% CI) (Colon Cancer): 2.000 (0.603 to 6.638) −3
ARR (Cough): −0.2%
NNT (Cough): 455
Risk Ratio (95% CI) (Cough): 0.526 (0.245 to 1.131) 3
Risk Ratio (95% CI) (Cystic Fibrosis): [No cases in study]
ARR (Decreased Appetite): 0.5%
NNT (Decreased Appetite): −215
Risk Ratio (95% CI) (Decreased Appetite): 2.584 (1.329 to 5.024) −4
ARR (Deep Venous Thromboembolism): −0.1%
NNT (Deep Venous Thromboembolism): 1364
Risk Ratio (95% CI) (Deep Venous Thromboembolism): 0.625 (0.205 to 1.909) 2
ARR [3]: 0.3%
NNT [3]: −340
Risk Ratio (95% CI) [3]: 1.106 (0.861 to 1.422) −1
ARR [4]: 0.3%
NNT [4]: −314
Risk Ratio (95% CI) [4]: 1.123 (0.867 to 1.454) −1
ARR [5]: 0.2%
NNT [5]: −408
Risk Ratio (95% CI) [5]: 1.097 (0.843 to 1.428) −1
ARR [6]: 0.0%
NNT [6]: −2044
Risk Ratio (95% CI) [6]: 3.001 (0.312 to 28.836) −4
ARR [7]: 0.0%
NNT [7]: −4088
Risk Ratio (95% CI) [7]: 2.000 (0.181 to 22.053) −3
ARR [8]: 0.0%
NNT [8]: −2044
Risk Ratio (95% CI) (Depression: Depressive disorders- Agitated depression, case counts given): [2 drug vs 0 PBO]
ARR [9]: 0.0%
NNT [9]: −3344802
Risk Ratio (95% CI) [9]: 1.000 (0.290 to 3.452) −1
ARR [10]: −0.0%
NNT [10]: 4091
Risk Ratio (95% CI) [10]: 0.500 (0.045 to 5.513) 3
ARR [11]: −0.0%
NNT [11]: 4096
Risk Ratio (95% CI) [11]: 0.857 (0.288 to 2.549) 1
ARR (Dermatitis psoriasiform): 0.0%
NNT (Dermatitis psoriasiform): −4089
Risk Ratio (95% CI) (Dermatitis psoriasiform, case counts given): [1 drug vs 0 PBO]
ARR (Dermatitis, allergic): −0.2%
NNT (Dermatitis, allergic): 454
Risk Ratio (95% CI) (Dermatitis, allergic): 0.250 (0.071 to 0.885) 4
ARR (Diabetic Nephropathy): −0.0%
NNT (Diabetic Nephropathy): 4100
Risk Ratio (95% CI) (Diabetic Nephropathy): 0.909 (0.387 to 2.139) 1
ARR (Dry Eye): 0.1%
NNT (Dry Eye): −1020
Risk Ratio (95% CI) (Dry Eye): 1.129 (0.698 to 1.828) −1
ARR (ESRD): −0.0%
NNT (ESRD): 4092
Risk Ratio (95% CI) (ESRD): 0.667 (0.111 to 3.989) 2
ARR (Embolism and Thrombosis): 0.1%
NNT (Embolism and Thrombosis): −1358
Risk Ratio (95% CI) (Embolism and Thrombosis): 1.064 (0.716 to 1.581) −1
ARR (Epilepsy): 0.0%
NNT (Epilepsy): −1.67e+07
Risk Ratio (95% CI) (Epilepsy): 1.000 (0.063 to 15.986)−1
ARR (Erectile dysfunction): −0.4%
NNT (Erectile dysfunction): 232
Risk Ratio (95% CI) (Erectile dysfunction): 0.784 (0.535 to 1.151) 2
ARR (Gastric Cancer): 0.0%
NNT (Gastric Cancer): −4088
Risk Ratio (95% CI) (Gastric Cancer): 2.000 (0.181 to 22.053) −3
ARR (Gastroesophageal reflux): −0.1%
NNT (Gastroesophageal reflux): 682
Risk Ratio (95% CI) (Gastroesophageal reflux): 0.333 (0.090 to 1.231) 4
ARR [12]: −0.1%
NNT [12]: 1023
Risk Ratio (95% CI) (Glomerulonephritis and Nephrotic Syndrome, case counts given): [0 drug vs 4 PBO]
ARR (Guttate psoriasis): 0.0%
NNT (Guttate psoriasis): −4089
Risk Ratio (95% CI) (Guttate psoriasis, case counts given): [1 drug vs 0 PBO]
ARR (Hepatitis C): 0.0%
NNT (Hepatitis C): −4089
Risk Ratio (95% CI) (Hepatitis C, case counts given): [1 drug vs 0 PBO]
Risk Ratio (95% CI) (IgA Nephropathy): [No cases in study]
ARR (Large intestine polyps): −0.2%
NNT (Large intestine polyps): 511
Risk Ratio (95% CI) (Large intestine polyps): 0.385 (0.137 to 1.078) 4
ARR (Leukaemia): 0.0%
NNT (Leukaemia): −1.67e+07
Risk Ratio (95% CI) (Leukaemia): 1.000 (0.063 to 15.986) −1
ARR [13]: −0.1%
NNT [13]: 1024
Risk Ratio (95% CI) [13]: 0.883 (0.541 to 1.439) 1
ARR (Liver Cancer): 0.0%
NNT (Liver Cancer): −4088
Risk Ratio (95% CI) (Liver Cancer): 2.000 (0.181 to 22.053) −3
ARR (Lung Cancer): −0.1%
NNT (Lung Cancer): 1023
Risk Ratio (95% CI) (Lung Cancer): 0.637 (0.247 to 1.640) 2
ARR (Lupus): −0.0%
NNT (Lupus): 4090
Risk Ratio (95% CI) (Lupus, case counts given): [0 drug vs 1 PBO]
ARR (Macular Degeneration): 0.1%
NNT (Macular Degeneration): −1361
Risk Ratio (95% CI) (Macular Degeneration): 1.188 (0.612 to 2.306) −1
Risk Ratio (95% CI) (Male Infertility): [No cases in study]
ARR (Migraine): 0.2%
NNT (Migraine): −584
Risk Ratio (95% CI) (Migraine): 2.751 (0.877 to 8.631) −4
Risk Ratio (95% CI) (Mucositis): [No cases in study]
ARR (Multiple Sclerosis): −0.0%
NNT (Multiple Sclerosis): 4090
Risk Ratio (95% CI) (Multiple Sclerosis, case counts given): [0 drug vs 1 PBO]
ARR (Muscle spasms): −1.1%
NNT (Muscle spasms): 95
Risk Ratio (95% CI) (Muscle spasms): 0.579 (0.421 to 0.795) 3
ARR (NASH): −0.1%
NNT (NASH): 818
Risk Ratio (95% CI) (NASH): 0.167 (0.020 to 1.384) 5
ARR (NASH for b/l NFS >0.675): −0.4%
NNT (NASH for b/l NFS >0.675): 273
Risk Ratio (95% CI) (NASH for b/l NFS >0.675): 0.252 (0.028 to 2.251) 4
ARR [14]: −0.5%
NNT [14]: 209
Risk Ratio (95% CI) [14]: 0.740 (0.342 to 1.601) 2
ARR (Nephrolithiasis): 0.1%
NNT (Nephrolithiasis): −1017
Risk Ratio (95% CI) (Nephrolithiasis): 1.050 (0.777 to 1.419) −1
ARR (Nephropathies): −0.2%
NNT (Nephropathies): 455
Risk Ratio (95% CI) (Nephropathies): 0.679 (0.380 to 1.213)2
ARR (Nephrotic Syndrome): −0.0%
NNT (Nephrotic Syndrome): 4090
Risk Ratio (95% CI) (Nephrotic Syndrome, case counts given): [0 drug vs 1 PBO]
Risk Ratio (95% CI) (PMS/Dysmenorrhea): [No cases in study]
ARR (PTSD): −0.0%
NNT (PTSD): 4092
Risk Ratio (95% CI) (PTSD): 0.667 (0.111 to 3.989) 2
ARR (Pancreatic Cancer): 0.1%
NNT (Pancreatic Cancer): −1022
Risk Ratio (95% CI) (Pancreatic Cancer): 5.001 (0.585 to 42.789) −5
ARR (Periodontitis): 0.0%
NNT (Periodontitis): −2044
Risk Ratio (95% CI) (Polycystic Ovarian Syndrome): [No cases in study]
ARR (Psoriasis): 0.3%
NNT (Psoriasis): −341
Risk Ratio (95% CI) (Psoriasis): 1.750 (0.949 to 3.230) −3
ARR (Psoriatic Conditions): 0.3%
NNT (Psoriatic Conditions): −292
Risk Ratio (95% CI) (Psoriatic Conditions): 1.875 (1.024 to 3.435) −3
ARR [15]: −0.0%
NNT [15]: 4091
Risk Ratio (95% CI) [15]: 0.500 (0.045 to 5.513) 3
Risk Ratio (95% CI) (Renal Transplant): [No cases in study]
ARR (Rheumatoid Arthritis): −0.1%
NNT (Rheumatoid Arthritis): 1363
Risk Ratio (95% CI) (Rheumatoid Arthritis, case counts given): [0 drug vs 3 PBO]
ARR (Schizophrenia NEC): −0.0%
NNT (Schizophrenia NEC): 4091
Risk Ratio (95% CI) (Schizophrenia NEC): 0.500 (0.045 to 5.513) 3
ARR (Sepsis): −0.1%
NNT (Sepsis): 682
Risk Ratio (95% CI) (Sepsis): 0.807 (0.477 to 1.364) 1
Risk Ratio (95% CI) (Sickle Cell Disease): [No cases in study]
ARR [16]: −0.0%
NNT [16]: 4090
Risk Ratio (95% CI) (Squamous Cell Carcinoma of Head and Neck, case counts given): [0 drug vs 1 PBO]
ARR [17]: −0.1%
NNT [17]: 682
Risk Ratio (95% CI) [17]: 0.143 (0.018 to 1.161) 5
ARR (Ulcerative Colitis): −0.0%
NNT (Ulcerative Colitis): 4090
Risk Ratio (95% CI) (Ulcerative Colitis, case counts given): [0 drug vs 1 PBO]
ARR (Wheezing): −0.3%
NNT (Wheezing): 315
Risk Ratio (95% CI) (Wheezing): 0.639 (0.379 to 1.076) 2
AR: Cough (AE table) [18]: 1,5%
ARR: Cough (AE table) [18]: 0.9%
NNT: Cough (AE table) [18]: −112
Risk Ratio (95% CI): Cough (AE table) [18]: 1.928 (0.692 to 5.373) −3
AR: Cough (AE table) [19]: 0.4%
ARR: Cough (AE table) [19]: −0.2%
NNT: Cough (AE table) [19]: 455
Risk Ratio (95% CI): Cough (AE table) [19]: 0.526 (0.245 to 1.131) 3
Severe SIRS: RR (vs placebo, p value 0.06): approximately 0.17
Systemic inflammatory response: risk ratio (RR) (vs placebo, p-value 0.0338): 0.143
